Test system: Staphylococcus aureus ATCC25923
Test: Disc diffusion test of inhibition zone
Assay type: cell-based
Conditions: HN019 1×10^8 CFU; gentamicin 200 μg/mL; 37° C., 18 hours
Description: Discs were prepared with sterile filter paper, the test substances HMO (10 mg/mL, 30 mg/mL) or probiotic (1×10^8 CFU) were introduced thereto, and the discs were dried overnight under sterile conditions. Staphylococcus aureus ATCC25923 (1.0×10^6 CFU/mL) was uniformly applied on the surface of an NGM agar plate, and then the discs were placed on the surface of the inoculated agar plate. Gentamicin (200 μg/mL) was used as a positive control. All plates were incubated at 37° C. for 18 hours.

Gentamicin
transparent inhibition zone around disc (direct antibacterial effect): formation of a transparent inhibition zone
